Reference: a melting point compilation (Tetko et al.; mined from patent text by program, amines drawn as free bases though some values may be those of a salt)

Row | SMILES | melting point
1 | O=C(Cc1ccccc1)c1cc(Br)ccc1O | 83 to 86 °C
2 | COc1cc(N)c(Cl)cc1C(=O)N[C@H]1CCN(CC#N)C[C@H]1OC (relative stereo) | 130 °C
3 | Cc1ccc(NC(=O)c2c(C)cccc2N)cc1 | 217 to 220 °C
4 | CC(=O)Nc1ncc(Sc2nnc(C)s2)s1 | 242 to 244 °C
5 | C=CCOc1ccccc1-c1ccc(C#N)cc1 | 68 to 69 °C
6 | NS(=O)(=O)c1cccc(C2(O)CCCCC2)c1 | 172 to 176 °C
7 | CSc1cc2cccc(NS(=O)(=O)c3cccs3)c2[nH]1 | 102 to 103 °C
8 | COc1cc(N)c(Cl)cc1C(=O)NCC1CCN(CCCCCCOc2ccccc2)CC1 | 113 to 115 °C
9 | CC1CN(c2cc3c(c(N)c2F)c(=O)c(C(=O)O)cn3C2CC2)CCN1 (configuration not stated) | 181 to 183 °C
10 | O=C1CCCCN1C1=CC(CF)(CF)Oc2ccc(C(F)(F)F)cc21 | 166 to 168 °C
11 | COc1cc(OCc2ccccc2)ccc1/C=C/c1cc(/C=C/c2ccc3cc[nH]c3c2)[nH]n1 | 86 to 91 °C
12 | CC(C)Nc1ccc(C#Cc2cc(C(=O)Nc3ccc(CN4CCN(C)CC4)c(C(F)(F)F)c3)ccc2Cl)nn1 | 133 to 134 °C
13 | O[C@@H]1C(Cl)=CCC[C@@H]1O | 111 to 112 °C
14 | O=C(O)c1ccc(CNS(=O)(=O)c2ccccc2)cc1 | 223 to 227 °C
15 | Clc1ccc(COC(CNc2ccc(Cl)c(Cl)c2)Cn2ccnc2)cc1 (configuration not stated) | 102 to 103 °C
16 | CC1(C)OC(=O)N(Cc2ccccc2[N+](=O)[O-])C1O (configuration not stated) | 119 to 120 °C
17 | CC(OP(=O)(c1ccccc1)c1ccccc1)c1ccccc1C(C)OP(=O)(c1ccccc1)c1ccccc1 (configuration not stated) | 147 to 148 °C
18 | CC(C)N1CCN(c2ccc(Br)cn2)CC1 | 76 to 78 °C
19 | CCC12CCC3=C(CCc4cc(O)ccc43)C1CCC2=O (configuration not stated) | 235 to 239 °C
20 | CCCCCCc1ccc(-c2ccc(OC(=O)C3(C#N)CCCC(C)C3)cc2)cc1 (configuration not stated) | 51 °C
21 | COc1cc2c(cc1Nc1ncc(Cl)c(Nc3ccc(N4CCOCC4)cc3OC)n1)CCN(CC(=O)N1CCCC1)CC2 | 82 to 105 °C
22 | CCCOc1ccccc1-c1cc(C)c(C(=O)OC)c(=O)[nH]1 | 167 to 169 °C
23 | COCC(=O)Nc1nc2c(C)cccc2s1 | 110 to 111 °C
24 | CNc1ccc(-c2nc3ccc(F)cc3s2)cc1 | 154 °C

Row | SMILES | melting point
25 | CC(C)Nc1nc2cc(F)c(F)c(F)c2n1[C@@H]1O[C@H](C)[C@@H](O)[C@H]1O | 175 to 178 °C
26 | COC(=O)CCc1ccc(CCNC(=O)c2cc(Cl)ccc2OC)cc1 | 58 to 61 °C
27 | CC(C)C(C(=O)Nc1n[nH]c(=S)s1)N(C(=O)OCc1ccccc1)c1ccccc1F (configuration not stated) | 148 °C
28 | Cc1ccc(C(=O)NCCO)cc1-n1c(C)cc(OCc2ccccc2CNC(=O)Nc2cc(C(C)(C)C)nn2-c2ccc(O)c(Cl)c2)c(Cl)c1=O | 195 to 196 °C
29 | CCOc1ccc([N+](=O)[O-])c(NN2CCOCC2)c1 | 152 °C
30 | CC(C)(C)c1ccc(CN2CCC3(CC2)CC(=O)c2ccccc2O3)cc1 | 149 to 151 °C
31 | O=P(O)(O)C1(P(=O)(O)O)CCCN1 | 80 °C
32 | COc1cc2c(Nc3cccc(Br)c3)c(C#N)cnc2c(OC)c1OC | 211 to 213 °C
33 | COc1cc2c3c(n(CCCCO)c(=O)c2cc1OC)-c1cc2c(cc1C3=O)OCO2 | 304 to 308 °C
34 | O=[N+]([O-])C1=C2N(Cc3ccc(Cl)nc3)CCCN2C2CCC1O2 (configuration not stated) | 143 to 145 °C
35 | CC(C)(C)c1cc(CCc2ccccc2NC(=O)N2CCC3(CC2)OCCO3)cc(C(C)(C)C)c1O | 163 to 164 °C
36 | Cc1ccc([N+](=O)[O-])cc1Nc1ncc(-c2cccnc2)o1 | 252 °C
37 | CCCc1c(OCCOc2cccc(C(=O)NCCCCc3cccnc3)c2)ccc(C(C)=O)c1O | 90 °C
38 | CN1CC(CCl)C(c2ccccc2)(c2ccccc2)C1=O (configuration not stated) | 120 to 122 °C
39 | Fc1cc(F)c2c(c1)C[C@@H](n1c(CCNCc3ccccc3)c[nH]c1=S)CO2 | 188 to 190 °C
40 | COc1cc(F)c(C(=O)CCl)c(OC)c1 | 93 to 96 °C
41 | O=C1OC(=O)c2c1ccc1ccc3ccccc3c21 | 245 °C
42 | COc1cc(C=CC(=O)c2ccccc2F)cc(OC)c1 | 71.6 to 72.5 °C
43 | CSCCC(=O)N(C)c1sc(-c2cncc(F)c2)nc1C#N | 97 to 98 °C
44 | Cc1cc(F)ccc1[C@@H]1CN(C2=CC(=O)CC2)CC[C@H]1C(=O)N(C)Cc1cc(C(F)(F)F)cc(C(F)(F)F)c1 (relative stereo) | 192 to 193 °C
45 | CC(C)NC(=O)NCCSCc1ccc(CN(C)C)o1 | 65 to 67 °C
46 | COc1cccc(C2(CC(=O)O)CCCC2C(=O)O)c1 (configuration not stated) | 175 to 180 °C
47 | Cn1c(=O)n(-c2cc(N)c(Cl)cc2F)c(=S)n1C | 208 °C
48 | COC(=O)Cc1ccc(C(C)=O)s1 | 43 to 44 °C

Row | SMILES | melting point
49 | CCCc1nnc2n1-c1ccc(Cl)cc1C(c1ccccc1)=NC2 | 176 °C
50 | Cn1cc(C2=C(c3ccncc3)C(=O)NC2=O)c2ccccc21 | 332 to 334 °C
51 | N#CCc1cc(Br)ccc1Sc1ccccc1 | 118 to 120 °C
52 | Cn1ccnc1CC(O)C(F)(F)F (configuration not stated) | 146 to 148 °C
53 | CNC(=O)c1ccccc1Nc1nc(Nc2cc3c(cc2OC)NC(=O)CCC3(C)C)ncc1Cl | 197 to 199 °C
54 | Cc1ccc(C(=O)c2ccc(Cc3c(Cl)cc(N)cc3Cl)cc2)cn1 | 153 to 155 °C
55 | O=S(=O)(c1ccccc1)N1CCNc2ncc(I)cc21 | 145 to 146 °C
56 | CC(=O)Nc1ccc(S(=O)(=O)NCC2CCN(C[C@H]3COc4ccc5[nH]ccc5c4O3)CC2)cc1 | 133 to 134 °C
57 | CN1CCC(=O)C(c2cccc(C(F)(F)F)c2)C1 (configuration not stated) | 64 to 65 °C
58 | CC(C)(O)C(=O)Nc1ccc(Sc2ccccc2)cc1F | 91 to 92.5 °C
59 | CN1CCN(c2cccc3ccc(OC(=O)c4ccc(Cl)cc4)cc23)CC1 | 110 to 111 °C
60 | CCN(CC)C(=O)COc1cc2ccccc2c(-c2ccccc2)n1 | 105 °C
61 | Cc1ccc(-c2nc(C)ccc2N2CCN(c3ccc(C)cc3)CC2)cc1 | 131 to 139 °C
62 | COC(=O)c1ccccc1C=CC(=O)N1CCc2c([nH]c3ccccc23)C1c1ccc2c(c1)OCO2 (configuration not stated) | 203 to 204 °C
63 | OCC1OC(n2c(Cl)nc3c(Cl)cc(Cl)cc32)C(O)C1O (configuration not stated) | 162 °C
64 | CCOc1nc2cccc(C(=O)OC)c2n1Cc1ccc(-c2ccccc2-c2nc(=O)o[nH]2)cc1 | 186 to 187 °C
65 | CC(=O)Oc1cc2cc[nH]c2cc1OC(C)=O | 130 to 131 °C
66 | O=S(=O)(Nc1ccc(Br)cc1)C(F)(F)F | 52 to 54 °C
67 | CCNC(=O)c1cccc(-c2c(CC(=O)Nc3ccc(Cl)cc3C(F)(F)F)c(=O)oc3cc(Cl)c(C)cc23)c1 | 220 to 222 °C
68 | COc1ccc(Cl)cc1C(=O)NS(=O)(=O)c1ccc(C(=O)Cl)cc1 | 138 to 140 °C
69 | CC(C)NCC(O)c1ccc(N)c(C#N)c1 (configuration not stated) | 159 to 161 °C
70 | Cc1oncc1C(=O)Nc1ccc(-n2nc(C3CC3)cc2C2CC2)cc1 | 153 to 158 °C
71 | N#Cc1cc(OCF)cc([N+](=O)[O-])c1Cl | 27 to 28 °C
72 | O=C1C(CCO)Oc2ccc(F)cc2N1Cc1cccc([N+](=O)[O-])c1 (configuration not stated) | 110 to 112 °C
